# Patent publication US20250271426A1, “REDUCTION OF BITTER TASTE OF ACTIVE PHARMACEUTICAL INGREDIENTS AND RELATED ASSAYS AND SCREENING METHODS” (Firmenich Incorporated, priority 2022, published 2025)
# Tests used:
# Assay in all cases: FLIPR calcium assay, cells with promiscuous G protein transfected with bitter receptor cDNA
# Type in all cases: cell-based
# Conditions in all cases: responsive if cellular response of >10% over baseline, Fluo4-AM
# [1] = biological target: T1, T2R receptor SEQ ID NO: 2 (S2) (Homo sapiens, UniProt Q9NYW2)
# T1 construct: expressed in transfected cells; host or cells: cells expressing a promiscuous G protein (e.g., G16g44)
# T1 sequence (Q9NYW2 1-309): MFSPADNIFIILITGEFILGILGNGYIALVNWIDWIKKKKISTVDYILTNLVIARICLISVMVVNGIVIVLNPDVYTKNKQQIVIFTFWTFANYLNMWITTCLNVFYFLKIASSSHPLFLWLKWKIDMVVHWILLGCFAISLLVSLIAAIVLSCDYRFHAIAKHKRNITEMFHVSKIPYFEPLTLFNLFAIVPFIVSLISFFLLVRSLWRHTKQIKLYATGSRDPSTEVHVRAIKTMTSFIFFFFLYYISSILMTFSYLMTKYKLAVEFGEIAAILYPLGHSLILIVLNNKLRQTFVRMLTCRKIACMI
# Protocol: (§1) Cells expressing a promiscuous G protein (e.g., G16g44) were transfected with vectors encoding 22 functional bitter receptor cDNAs, with one receptor per transfection. The cells were transfected directly in 384-well format high-density plates and incubated for 28 hours. Later, cells were loaded with the Ca-specific dye Fluo4-AM. After an incubation of 60 minutes, excess dye is washed off, and cells are stimulated with respective bitter agonists while simultaneously recording changes in intracellular fluorescence using a FLIPR instrument.
# (§2) The above protocol was carried out using 94 different active pharmaceutical ingredients (APIs) that span a wide range of different APIs having a diversity of chemical structures. A particular T2R receptor was identified as being responsive to a particular API if it triggered a cellular response of >10% over baseline.
# [2] = biological target: T2, T2R receptor SEQ ID NO: 4 (S4) (Homo sapiens, UniProt Q9NYV8)
# T2 construct: expressed in transfected cells; host or cells: cells expressing a promiscuous G protein (e.g., G16g44)
# T2 sequence (Q9NYV8 1-317): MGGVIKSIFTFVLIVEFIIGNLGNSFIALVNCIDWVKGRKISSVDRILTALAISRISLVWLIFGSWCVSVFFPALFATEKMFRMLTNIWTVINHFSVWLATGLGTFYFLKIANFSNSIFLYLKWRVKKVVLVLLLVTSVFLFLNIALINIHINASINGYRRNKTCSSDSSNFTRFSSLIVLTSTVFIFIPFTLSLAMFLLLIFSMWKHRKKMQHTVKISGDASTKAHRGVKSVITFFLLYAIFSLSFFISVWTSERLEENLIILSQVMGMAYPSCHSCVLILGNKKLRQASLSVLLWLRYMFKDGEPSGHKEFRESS
# Protocol: as §1, §2
# [3] = biological target: T3, T2R receptor SEQ ID NO: 3 (S3) (Homo sapiens, UniProt Q9NYW0, T156M)
# T3 construct: expressed in transfected cells; host or cells: cells expressing a promiscuous G protein (e.g., G16g44)
# T3 sequence (Q9NYW0 1-307 T156M): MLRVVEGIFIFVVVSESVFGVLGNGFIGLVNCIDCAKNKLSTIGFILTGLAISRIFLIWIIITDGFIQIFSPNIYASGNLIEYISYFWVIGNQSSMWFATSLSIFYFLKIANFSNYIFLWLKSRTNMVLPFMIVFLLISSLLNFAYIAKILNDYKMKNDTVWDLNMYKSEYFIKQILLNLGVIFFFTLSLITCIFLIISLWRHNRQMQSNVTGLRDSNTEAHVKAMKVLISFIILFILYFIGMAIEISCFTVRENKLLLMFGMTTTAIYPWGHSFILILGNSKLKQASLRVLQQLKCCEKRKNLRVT
# Protocol: as §1, §2
# [4] = biological target: T4, T2R receptor SEQ ID NO: 6 (S6) (Homo sapiens, UniProt P59540)
# T4 construct: expressed in transfected cells; host or cells: cells expressing a promiscuous G protein (e.g., G16g44)
# T4 sequence (P59540 1-309): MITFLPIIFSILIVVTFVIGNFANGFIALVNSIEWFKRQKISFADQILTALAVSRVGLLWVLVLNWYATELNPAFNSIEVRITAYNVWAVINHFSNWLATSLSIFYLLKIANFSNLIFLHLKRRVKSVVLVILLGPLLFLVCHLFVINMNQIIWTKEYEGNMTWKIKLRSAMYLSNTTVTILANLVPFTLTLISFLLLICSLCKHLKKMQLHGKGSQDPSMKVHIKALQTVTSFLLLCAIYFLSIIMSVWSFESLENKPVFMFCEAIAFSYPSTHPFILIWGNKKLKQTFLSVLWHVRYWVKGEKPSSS
# Protocol: as §1, §2
# [5] = biological target: T5, T2R receptor SEQ ID NO: 1 (S1) (Homo sapiens, UniProt Q9NYW7)
# T5 construct: expressed in transfected cells; host or cells: cells expressing a promiscuous G protein (e.g., G16g44)
# T5 sequence (Q9NYW7 1-299): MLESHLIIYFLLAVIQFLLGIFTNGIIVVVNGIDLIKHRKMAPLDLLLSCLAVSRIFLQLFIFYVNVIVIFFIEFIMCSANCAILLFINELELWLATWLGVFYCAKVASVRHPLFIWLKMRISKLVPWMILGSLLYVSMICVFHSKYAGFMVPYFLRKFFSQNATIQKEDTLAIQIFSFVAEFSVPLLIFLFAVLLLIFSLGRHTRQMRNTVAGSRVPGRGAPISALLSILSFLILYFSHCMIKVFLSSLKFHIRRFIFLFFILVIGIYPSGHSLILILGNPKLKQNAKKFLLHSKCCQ
# Protocol: as §1, §2
# [6] = biological target: T6, T2R receptor SEQ ID NO: 5 (S5) (Homo sapiens, UniProt P59534)
# T6 construct: expressed in transfected cells; host or cells: cells expressing a promiscuous G protein (e.g., G16g44)
# T6 sequence (P59534 18-338): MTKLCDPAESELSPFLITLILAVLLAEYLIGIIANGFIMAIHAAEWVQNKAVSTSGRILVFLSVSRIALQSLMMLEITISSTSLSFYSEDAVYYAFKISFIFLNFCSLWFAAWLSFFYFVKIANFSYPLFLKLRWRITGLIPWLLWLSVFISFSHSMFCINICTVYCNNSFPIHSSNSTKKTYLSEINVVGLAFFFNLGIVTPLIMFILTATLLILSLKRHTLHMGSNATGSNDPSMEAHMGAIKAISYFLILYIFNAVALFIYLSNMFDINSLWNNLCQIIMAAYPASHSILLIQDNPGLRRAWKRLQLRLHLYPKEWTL
# Protocol: as §1, §2
SMILES,S2 positive response of T2R receptor to API [1],S4 positive response of T2R receptor to API [2],S3 positive response of T2R receptor to API [3],S6 positive response of T2R receptor to API [4],S1 positive response of T2R receptor to API [5],S5 positive response of T2R receptor to API [6]
C[C@H]1O[C@@H](O[C@H]2[C@@H](O)C[C@H](O[C@H]3[C@@H](O)C[C@H](O[C@H]4CC[C@@]5(C)[C@H](CC[C@@H]6[C@@H]5C[C@@H](O)[C@]5(C)[C@@H](C7=CC(=O)OC7)CC[C@]65O)C4)O[C@@H]3C)O[C@@H]2C)C[C@H](O)[C@@H]1O [Digoxin],+ (a “+” to indicate whether a particular T2R receptor showed a positive response to a particular API),+ (a “+” to indicate whether a particular T2R receptor showed a positive response to a particular API),+ (a “+” to indicate whether a particular T2R receptor showed a positive response to a particular API),+ (a “+” to indicate whether a particular T2R receptor showed a positive response to a particular API),,
N=C(NCCCCCCNC(=N)NC(=N)Nc1ccc(Cl)cc1)NC(=N)Nc1ccc(Cl)cc1.O=C(O)[C@H](O)[C@@H](O)[C@H](O)[C@H](O)CO.O=C(O)[C@H](O)[C@@H](O)[C@H](O)[C@H](O)CO [Chlorhexidine Digluconate],,+ (a “+” to indicate whether a particular T2R receptor showed a positive response to a particular API),,+ (a “+” to indicate whether a particular T2R receptor showed a positive response to a particular API),+ (a “+” to indicate whether a particular T2R receptor showed a positive response to a particular API),+ (a “+” to indicate whether a particular T2R receptor showed a positive response to a particular API)
COc1ccc2c(c1)[C@]13CCCC[C@@H]1[C@H](C2)N(C)CC3 [Dextromethorphan],,+ (a “+” to indicate whether a particular T2R receptor showed a positive response to a particular API),+ (a “+” to indicate whether a particular T2R receptor showed a positive response to a particular API),+ (a “+” to indicate whether a particular T2R receptor showed a positive response to a particular API),+ (a “+” to indicate whether a particular T2R receptor showed a positive response to a particular API),+ (a “+” to indicate whether a particular T2R receptor showed a positive response to a particular API)
CN(C)CCC(c1ccc(Br)cc1)c1ccccn1 (stereo not drawn) [Brompheniramine],,+ (a “+” to indicate whether a particular T2R receptor showed a positive response to a particular API),+ (a “+” to indicate whether a particular T2R receptor showed a positive response to a particular API),+ (a “+” to indicate whether a particular T2R receptor showed a positive response to a particular API),+ (a “+” to indicate whether a particular T2R receptor showed a positive response to a particular API),+ (a “+” to indicate whether a particular T2R receptor showed a positive response to a particular API)
CN(C)CCC(c1ccc(Cl)cc1)c1ccccn1 (stereo not drawn) [Chlorpheniramine],,+ (a “+” to indicate whether a particular T2R receptor showed a positive response to a particular API),+ (a “+” to indicate whether a particular T2R receptor showed a positive response to a particular API),+ (a “+” to indicate whether a particular T2R receptor showed a positive response to a particular API),+ (a “+” to indicate whether a particular T2R receptor showed a positive response to a particular API),+ (a “+” to indicate whether a particular T2R receptor showed a positive response to a particular API)
CCn1cc(C(=O)O)c(=O)c2cc(F)c(N3CCNC(C)C3)c(F)c21 (stereo not drawn) [Lomefloxacin],+ (a “+” to indicate whether a particular T2R receptor showed a positive response to a particular API),,,+ (a “+” to indicate whether a particular T2R receptor showed a positive response to a particular API),,
OC(CCCN1CCCCC1)(c1ccccc1)c1ccccc1 [Diphenidol],,+ (a “+” to indicate whether a particular T2R receptor showed a positive response to a particular API),+ (a “+” to indicate whether a particular T2R receptor showed a positive response to a particular API),+ (a “+” to indicate whether a particular T2R receptor showed a positive response to a particular API),+ (a “+” to indicate whether a particular T2R receptor showed a positive response to a particular API),+ (a “+” to indicate whether a particular T2R receptor showed a positive response to a particular API)
NCC1(CC(=O)O)CCCCC1 [Gabapentin],+ (a “+” to indicate whether a particular T2R receptor showed a positive response to a particular API),,+ (a “+” to indicate whether a particular T2R receptor showed a positive response to a particular API),,,
CC(C)(C)NC[C@H](O)COc1nsnc1N1CCOCC1 [Timolol],,,+ (a “+” to indicate whether a particular T2R receptor showed a positive response to a particular API),+ (a “+” to indicate whether a particular T2R receptor showed a positive response to a particular API),+ (a “+” to indicate whether a particular T2R receptor showed a positive response to a particular API),+ (a “+” to indicate whether a particular T2R receptor showed a positive response to a particular API)
CC(=O)CC(c1ccccc1)c1c(O)c2ccccc2oc1=O (stereo not drawn) [Warfarin],,+ (a “+” to indicate whether a particular T2R receptor showed a positive response to a particular API),,,+ (a “+” to indicate whether a particular T2R receptor showed a positive response to a particular API),+ (a “+” to indicate whether a particular T2R receptor showed a positive response to a particular API)
